Measured values as given in patent US20060216336A1, “Transdermal therapeutic system for Parkinson's Disease” (priority 2002, published 2006).

Assay: Multiple dose trial with rotating patch application sites in early-stage Parkinson's disease: rotigotine pharmacokinetics (Example 4)
Details: human, in vivo; for concentration at […]: 23.5 H
Source text: Each day, a fresh patch was placed on a new skin site (abdomen, flank, upper arm, shoulder, thigh, hip) in a rotating order. The silicone transdermal patches were made in accordance with the teachings of U.S. Patent Application Publication No. US 2003/0026830 at paragraphs 38-42, U.S. Patent Application Publication No. US 2003/0027793 at paragraphs 37-41 and U.S. Pat. No. 6,884,434, columns 5-6, Example 2 and comprised the following layers and components:
The trial consisted of an Eligibility Assessment (EA), a 24-day Titration Phase (4.5 to 18.0 mg/day doses; incremental increases of 4.5mg/day every 6 days), a 6-day Maintenance Phase (18.0 mg/day dose), a 6-day De-escalation Phase (13.5/9.0/4.5mg/day decreasing dose every 2 days), and a Safety Follow-Up visit 2 days following the last dose.
The silicone transdermal patches were made in accordance with the teachings of U.S. Patent Application Publication No. US 2003/0026830 at paragraphs 3842 and U.S. Patent Application Publication No. US 2003/0027793 at paragraphs 3741 comprised the following layers and components as disclosed above
The 18.0 mg/day dose used 2×20 cm^2 patches. Initial doses were 4.5 mg/day with weekly increases of 4.5 mg/day to a maximum target dose of 18.0 mg/day.

[1] = rotigotine plasma concentration Geo. Mean
[2] = rotigotine plasma concentration Max
[3] = rotigotine plasma concentration Mean
[4] = rotigotine plasma concentration Median
[5] = rotigotine plasma concentrations, Geo. Mean
[6] = rotigotine plasma concentrations, Mean
[7] = rotigotine plasma concentrations, Median

Compound `CCCN(CCc1cccs1)[C@H]1CCc2c(O)cccc2C1` [rotigotine, (6S)-6{propyl[2-(2-thienyl)ethyl]amino}-5,6,7,8-tetrahydro-1-naphthalenol] has a concentration at […] (18 mg/day, rotigotine plasma concentration Min, Thigh, Days 27 & 30 Combined) of 0.152 ng/mL, a concentration at […] (18 mg/day, rotigotine plasma concentration Min, Upper Arm, Day 27) of 0.129 ng/mL and a concentration at […] (18 mg/day, rotigotine plasma concentration Min, Upper Arm, Day 30) of 0.347 ng/mL. For the same compound, the concentration at […] (18 mg/day, rotigotine plasma concentration Min, Upper Arm, Days 27 & 30 Combined) was 0.129 ng/mL, the concentration at […] (18 mg/day, rotigotine plasma concentrations, Geo. Mean, Application Site = Abdomen, Day 27) was 0.806 ng/mL and the concentration at […] (18 mg/day, rotigotine plasma concentrations, Geo. Mean, Application Site = Abdomen, Day 30) was 0.545 ng/mL. The concentration at […] (18 mg/day, rotigotine plasma concentrations, Geo. Mean, Application Site = Abdomen, Days 27 & 30 Combined) was 0.676 ng/mL, the concentration at 7 h (18 mg/day, rotigotine plasma concentrations, Geo. Mean, Application Site = Flank, Days 27 & 30 Combined, 7 H) was 0.681 ng/mL and the concentration at […] (18 mg/day, rotigotine plasma concentrations, Geo. Mean, Application Site = Flank, Days 27 & 30 Combined) was 0.81 ng/mL. It also gave a concentration at […] (18 mg/day, rotigotine plasma concentrations, Mean, Application Site = Abdomen, Day 27) of 0.929 ng/mL, a concentration at […] (18 mg/day, rotigotine plasma concentrations, Mean, Application Site = Abdomen, Day 30) of 0.613 ng/mL and a concentration at […] (18 mg/day, rotigotine plasma concentrations, Mean, Application Site = Abdomen, Days 27 & 30 Combined) of 0.787 ng/mL. For the same compound, the concentration at […] (18 mg/day, rotigotine plasma concentrations, Mean, Application Site = Flank, Days 27 & 30 Combined) was 1.1 ng/mL, the concentration at […] (18 mg/day, rotigotine plasma concentrations, Median, Application Site = Abdomen, Day 30) was 0.415 ng/mL and the concentration at […] (18 mg/day, rotigotine plasma concentrations, Median, Application Site = Abdomen, Days 27 & 30 Combined) was 0.677 ng/mL. For the same compound, the concentration at […] (18 mg/day, rotigotine plasma concentrations, Median, Application Site = Flank, Days 27 & 30 Combined) was 0.714 ng/mL, the AUC(0-t) (AUC 0-t, ss) was 23.8 ng·h/mL and the concentration at 27 day (Average Concentration) was 0.882 ng/mL. The concentration at 30 day (Average Concentration) was 0.975 ng/mL, the concentration at 5 h [1] was 0.971 ng/mL and the concentration at 6 h [1] was 0.837 ng/mL. The concentration at 7 h [1] was 0.993 ng/mL, the concentration at 14 h [1] was 1.15 ng/mL and the concentration at 16 h [1] was 1.15 ng/mL. The concentration at 18 h [1] was 1.16 ng/mL, the concentration at 20 h [1] was 1.14 ng/mL and the concentration at 22 h [1] was 0.815 ng/mL. For the same compound, the concentration at 10 h [2] was 1.98 ng/mL, the concentration at 16 h [2] was 2.53 ng/mL and the concentration at 18 h [2] was 3.25 ng/mL. It also gave a concentration at 22 h [2] of 1.77 ng/mL, a concentration at 6 h [3] of 0.911 ng/mL and a concentration at 7 h [3] of 1.08 ng/mL. It also gave a concentration at 10 h [3] of 1.17 ng/mL, a concentration at 14 h [3] of 1.26 ng/mL and a concentration at 16 h [3] of 1.28 ng/mL. It also gave a concentration at 18 h [3] of 1.32 ng/mL, a concentration at 20 h [3] of 1.4 ng/mL and a concentration at 22 h [3] of 0.904 ng/mL. The concentration at 5 h [4] was 0.956 ng/mL, the concentration at 14 h [4] was 1.21 ng/mL and the concentration at 16 h [4] was 1.06 ng/mL. It also gave a concentration at 18 h [4] of 1.17 ng/mL, a concentration at 20 h [4] of 1.04 ng/mL and a concentration at 22 h [4] of 0.734 ng/mL. It also gave a concentration at 10 h [5] of 0.816 ng/mL, a concentration at 12 h [5] of 0.848 ng/mL and a concentration at 14 h [5] of 0.84 ng/mL. It also gave a concentration at 16 h [5] of 1 ng/mL, a concentration at 18 h [5] of 1.01 ng/mL and a concentration at 20 h [5] of 1.02 ng/mL. It also gave a concentration at 22 h [5] of 0.91 ng/mL, a concentration at 10 h [6] of 0.909 ng/mL and a concentration at 12 h [6] of 0.911 ng/mL. The concentration at 14 h [6] was 0.931 ng/mL, the concentration at 16 h [6] was 1.07 ng/mL and the concentration at 18 h [6] was 1.06 ng/mL. For the same compound, the concentration at 20 h [6] was 1.08 ng/mL, the concentration at 22 h [6] was 1.01 ng/mL and the concentration at 10 h [7] was 0.766 ng/mL. It also gave a concentration at 12 h [7] of 0.763 ng/mL, a concentration at 14 h [7] of 0.816 ng/mL and a concentration at 16 h [7] of 0.904 ng/mL. It also gave a concentration at 18 h [7] of 1.08 ng/mL, a concentration at 20 h [7] of 0.962 ng/mL and a concentration at 22 h [7] of 0.804 ng/mL.
